# Experimental data: patent US20250263396A1, “CRYSTALLINE FORMS OF 3-(5-(2-HYDROXY-2- METHYLPROPOXY)-6-METHYPYRAZIN-2-YL)-1H-INDOLE-7-CARBONITRILE” (NIDO BIOSCIENCES, INC., priority 2024, published 2025)
# Legend:
# [1] = Competitive equilibration experiments; conditions: for XRPD after competitive equilibration: 2-MeTHF
# Procedure: Relative stability of the anhydrate Forms A, C, H and J was investigated with competitive equilibration experiments.
# Relative stability of the anhydrates Forms C, K and L was investigated with competitive equilibration experiments.
# Relative stability of the anhydrates Form C and Form P was systematically investigated with competitive equilibration experiments.
# About 5 mg of Form C and about 5 mg of Form P were added to 0.25 mL of saturated solutions of selected solvents. Obtained suspensions were stirred at 25° C., 50° C. and 70° C. for 4 days, respectively. Solid parts (wet cakes) were isolated by centrifugation filtration and investigated by XRPD.
# About 10 mg of Form C and about 10 mg of Form P were added to 0.5 mL saturated solutions of selected solvents. Obtained suspensions were stirred at 80/C and 90 C, respectively. Solid parts (wet cakes) were be isolated by centrifugation filtration and investigated by XRPD.
# About 3 mg of the Form P and 3 mg of the mixture of Form P and Form J were added to 0.2 mL of saturated solutions of selected solvents. Obtained suspensions were stirred at 25° C., 50° C. and 70° C. for 4 days, respectively. Solid parts (wet cakes) were isolated by centrifugation filtration and investigated by XRPD.
# About 3 mg of Form P and 3 mg of the physical mixture of Form P and Form R were added to 0.2 mL of saturated solutions of 2-MeTHF. Obtained suspensions were stirred at 25° C., 50° C. and 70° C., respectively. Solid parts (wet cakes) were isolated by centrifugation filtration and investigated by XRPD.
# About 1.5 mg of Form P, 1.5 mg of Form X and 1.5 mg Form Y were added to 0.15 mL saturated solution of 2-MeTHF. Obtained suspensions were stirred at 25° C., 50° C. and 70° C., respectively. Solid parts (wet cake) were isolated by centrifugation filtration and investigated by XRPD.
# [2] = Equilibration with solvents; format: physicochemical
# Procedure: Obtained suspensions were filtered through a 0.45 μm nylon membrane filter by centrifugation at 14,000 rpm. Solid parts (wet cakes) were investigated by XRPD. For samples with different XRPD patterns, additional analysis including DSC, TGA, ^1H-NMR were performed.
# (§1) Obtained suspensions were filtered through a 0.45 μm nylon membrane filter by centrifugation at 14,000 rpm.
# as §1
smiles,measurement,setting,value
"Cc1nc(-c2c[nH]c3c(C#N)cccc23)cnc1OCC(C)(C)O [Form R, 3-(5-(2-hydroxy-2-methylpropoxy)-6-methylpyrazin-2-yl)-1H-indole-7-carbonitrile]",Form conversion (relative stability),[1]; at both 25° C. and 70° C.,converts to Form P
"Cc1nc(-c2c[nH]c3c(C#N)cccc23)cnc1OCC(C)(C)O [Form P + Form X + Form Y, 3-(5-(2-hydroxy-2-methylpropoxy)-6-methylpyrazin-2-yl)-1H-indole-7-carbonitrile]",XRPD after competitive equilibration,[1]; 25° C. for about 3 days,Form P
same,XRPD after competitive equilibration,[1]; 50° C. for about 3 days,Form P
same,XRPD after competitive equilibration,[1]; 70° C. for about 3 days,Form P
"Cc1nc(-c2c[nH]c3c(C#N)cccc23)cnc1OCC(C)(C)O [Form G, 3-(5-(2-hydroxy-2-methylpropoxy)-6-methylpyrazin-2-yl)-1H-indole-7-carbonitrile]",Form after equilibration,[2]; DMSO/water system at 25° C. for 6 days,converts to anhydrate Form H
"Cc1nc(-c2c[nH]c3c(C#N)cccc23)cnc1OCC(C)(C)O [Form M, 3-(5-(2-hydroxy-2-methylpropoxy)-6-methylpyrazin-2-yl)-1H-indole-7-carbonitrile]",Form after equilibration,[2]; MeOH at 25° C. for another 1 day,converts to Form B
